Target: CDK7/Cyclin H/MNAT1 (Homo sapiens, UniProt P50613)
Sequence (P51946 whole entry): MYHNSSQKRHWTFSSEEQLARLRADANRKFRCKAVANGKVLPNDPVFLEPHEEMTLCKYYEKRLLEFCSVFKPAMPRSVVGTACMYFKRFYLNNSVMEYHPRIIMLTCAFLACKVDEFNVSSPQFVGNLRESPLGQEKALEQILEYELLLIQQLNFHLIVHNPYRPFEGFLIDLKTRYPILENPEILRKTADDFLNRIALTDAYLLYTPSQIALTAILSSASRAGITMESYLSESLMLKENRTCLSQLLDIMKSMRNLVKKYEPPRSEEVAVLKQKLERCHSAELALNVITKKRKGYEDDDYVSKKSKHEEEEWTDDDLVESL
Sequence (P50613 whole entry): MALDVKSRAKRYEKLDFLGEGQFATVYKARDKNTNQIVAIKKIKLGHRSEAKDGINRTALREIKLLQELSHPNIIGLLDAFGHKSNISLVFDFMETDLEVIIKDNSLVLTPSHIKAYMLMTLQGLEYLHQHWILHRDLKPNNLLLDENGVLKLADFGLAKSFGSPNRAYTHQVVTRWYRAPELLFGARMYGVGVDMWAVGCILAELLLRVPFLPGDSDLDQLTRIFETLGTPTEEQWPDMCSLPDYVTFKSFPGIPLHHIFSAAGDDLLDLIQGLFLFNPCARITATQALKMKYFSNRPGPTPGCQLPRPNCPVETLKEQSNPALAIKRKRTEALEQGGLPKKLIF
Sequence (P51948 whole entry, further chain): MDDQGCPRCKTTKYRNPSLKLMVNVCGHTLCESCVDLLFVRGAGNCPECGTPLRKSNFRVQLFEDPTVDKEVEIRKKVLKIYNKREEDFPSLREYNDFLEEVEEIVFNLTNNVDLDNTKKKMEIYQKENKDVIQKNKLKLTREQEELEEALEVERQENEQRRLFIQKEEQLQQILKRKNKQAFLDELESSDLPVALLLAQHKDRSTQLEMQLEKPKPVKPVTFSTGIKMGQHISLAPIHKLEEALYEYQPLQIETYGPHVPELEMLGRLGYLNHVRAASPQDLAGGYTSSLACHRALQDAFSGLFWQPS
Description: Inhibition of recombinant human full-length His-tagged CDK7/Cyclin H/MNAT1 expressed in baculovirus infection system using Cdk7/9tide as substrate measured after 1 hr by Alexa Fluor 647 ADP Tracer-based Adapta assay

Row | IC50 [µM] | SMILES
1 | > 10 | C=CC(=O)Nc1ccc(C(=O)N2CCC[C@@H](Nc3ncc(SCc4ccncc4)s3)C2)cc1
2 | > 10 | C=CC(=O)Nc1ccc(C(=O)N2CCC[C@@H](Nc3ncc([S+]([O-])Cc4ncc(C(C)(C)C)o4)s3)C2)cc1 (stereo not given in full)
3 | 3.89 | C=CC(=O)Nc1ccc(C(=O)N2CCC[C@@H](Nc3ncc(SCc4ncc(C(C)(C)C)o4)s3)C2)nc1
4 | 0.609 | C=CC(=O)Nc1ccc(C(=O)N2C[C@H](Nc3ncc(SCc4ncc(C(C)(C)C)o4)s3)CC[C@@H]2C)cc1
5 | 5.12 | C=CC(=O)Nc1ccc(C(=O)N2CCC[C@@H](Nc3ncc(Cl)c(SCc4ncc(C(C)(C)C)o4)n3)C2)cc1
6 | > 10 | C=CC(=O)Nc1ccc(C(=O)N2CCC[C@@H](Nc3nc(C)c(SCc4ncc(C(C)(C)C)o4)s3)C2)cc1
7 | 5.54 | C=CC(=O)Nc1ccc(C(=O)N2CCC[C@@H](Nc3ncc(SCc4ncc(C(C)(C)C)o4)s3)C2)cc1F
8 | 3.49 | C=CC(=O)Nc1ccc(C(=O)N2CCC[C@@H](Nc3ncc(SCc4ncc(C(C)(C)C)o4)s3)C2)cc1C(F)(F)F
9 | 7.79 | C=CC(=O)Nc1ccc(C(=O)N2CCC[C@@H](Nc3ncc(SCc4ncc(C(C)(C)C)o4)s3)[C@H]2C)cc1
10 | 9.6 | C=CC(=O)Nc1ccc(C(=O)N2CC(Nc3ncc(SCc4ncc(C(C)(C)C)o4)s3)CC(F)(F)C2)cc1 (stereo not given)

From ChEMBL document CHEMBL4610118 (J Med Chem, 2020)
